Legend:
[1] = tested on: platelets; experiment: Thrombopenic activity after oral administration to dogs; format: in vivo; conditions: dog, 2.5 mg/kg
Method: Male or female dogs weighing 11-28 kg are treated orally with the products of the invention (5 mg/kg) or with the reference substance, DUP 714, at a concentration of 2.5 mg/kg. […] The number of platelets is also determined in each sample using a T450 counter (Coultronics).
Under the conditions of our experiments, the number of platelets before the treatment is about 300,000 platelets/μl; the TT is about 19 seconds and the ACT is about 18 seconds.

[2] = tested on: plasma from the dogs (TT); experiment: TT in dogs after oral administration; format: in vivo; conditions: dog
Method: (§1) Male or female dogs weighing 11-28 kg are treated orally with the products of the invention (5 mg/kg) or with the reference substance, DUP 714, at a concentration of 2.5 mg/kg. The coagulation times (TT, ACT) are determined in samples of plasma from the dogs 10 min before and 30 min, 1 hour, 2 hours, 4 hours and 6 hours after administration of the products. […] The number of platelets is also determined in each sample using a T450 counter (Coultronics).
(§2) The values show the number of times that the initial time is increased.

[3] = tested on: plasma from the dogs (ACT); experiment: ACT in dogs after oral administration; format: in vivo; conditions: dog
Method: as §1, §2

[4] = tested on: thrombin; conditions: literature; cited from earlier work

## CC(=O)N[C@H](Cc1ccccc1)C(=O)N1CCC[C@H]1C(=O)N[C@@H](CCCNC(=N)N)B(O)O [DUP 714, Ac-(D)Phe-Pro-Arg boronic acid, reference compound]
[1]
  effect on number of platelets, in words: lowers the number of platelets appreciably and reversibly
[1]; 1 hour
  Thrombopenias observed 1 hour after oral administration to dogs: 55%
  fall in number of platelets: 55±14%
[2]
  increase of TT in animals, in words: appreciably increase
[3]
  increase of ACT in animals, in words: appreciably increase
[4]
  thrombin inhibition, in words: thrombin inhibitor

Source: patent publication US5814622A, “Compounds derived from boronic acid” (Adir et Compagnie, priority 1996, dated 1998)
